How the values were obtained:
[1] = test system: Raji lymphoma; experiment: Raji lymphoma model in NSG mice treated with inhibitor-treated Leu16 CAR-T cells; assay type: in vivo; conditions: Raji i.v., two doses of inhibitor-treated Leu16 CAR-T cells, vs vehicle-treated
Description: FIG. 3A-G. Pharmacological modulation of Leu16 CAR-T cells modestly dampens tonic signaling while enhancing anti-tumor efficacy. (A) Pictorial representation of the correlation between tonic signaling-modulated rituximab CAR-T cells and in vivo anti-tumor efficacy. (B) Pictorial representation of pharmacological modulation strategy aimed to either increase or decrease Leu16 CAR tonic signaling; c-MYC (MYCi975) and SREBP (betulin) inhibition increased tonic signaling whereas mTORC1 (rapamycin) inhibition decreased tonic signaling in rituximab CAR-T cells. (C) % distribution of T-cell subtypes in CAR^+ T cells after 6 days of pharmacological modulation (left) and Tn/scm enrichment (right). The bars in FIG. 3C, right graph, represent data from, EGFRt, Leu16-28z (vehicle), Leu16-28z (MYCi975), Leu16-28z (Betulin), and Leu16-28z (Rapamycin), respectively, from left to right. (D) Activation and exhaustion marker expression by CAR^+ T cells in the absence of antigen stimulation after 6 days of pharmacological modulation. […] (F) Tumor signal (in photons/sec/cm2/sr) in individual animals as quantified by bioluminescence imaging. […]
In vivo studies. […] Tumor progression/regression was monitored with an IVIS Illumina III LT Imaging System (PerkinElmer). […]

[2] = test system: rituximab CAR-T cells; experiment: Antigen-independent CAR-T cell metabolic activity, rituximab CAR-T cells (data not shown); assay type: cell-based, human
Description: Cell line generation and maintenance. HEK 293T and Raji cells were obtained from ATCC. Leu16 and rituximab scFv-expressing HEK293T cell lines were generated by retroviral transduction of HEK293T cells to express each scFv fused with EGFP via a 2A peptide, and EGFP+ cells were sorted by fluorescence-activated cell sorting (FACS) on a FACSAria (II) cell sorter (BD Bioscience) at the UCLA Flow Cytometry Core Facility. CD20+K562 cells were generated by transduction of K562 cells with a retroviral construct encoding full-length CD20. K562 cells with varying CD20 expression levels were generated by FACS sorting of CD20+K562 into bins of different antigen densities. CHLA-255-Luc-EGFP cells were generated by retroviral transduction of CHLA-255-Luc to express EGFP, and EGFP+ cells were enriched by FACS. HEK 293T cells were cultured in DMEM (HyClone) supplemented with 10% heat-inactivated FBS (HI-FBS; ThermoFisher). CHLA-255-Luc-EGFP cells were cultured in IMDM (ThermoFisher) with 10% HI-FBS. Primary human T cells, Raji, and K562 cells were cultured in RPMI-1640 (Lonza) with 10% HI-FBS. For CAR-T cells used in metabolomics studies, T cells were cultured in RPMI-1640 containing 2 g/L of 1,2-13C-glucose with 10% heat-inactivated dialyzed FBS (HI-dFBS).

C=C(C)[C@@H]1CC[C@]2(CO)CC[C@]3(C)[C@H](CC[C@@H]4[C@@]5(C)CC[C@H](O)C(C)(C)[C@@H]5CC[C@]43C)[C@@H]12 [betulin, Betulin] was tested, and the “in vivo functionality: tumor control and survival” value [1] was “prolonged tumor control and survival” and the “antigen-independent CAR-T cell metabolic activity” value [2] was “increases”.
